Counter-ions that a name gives are not always drawn.
System: rats with bladder hypertrophy
Assay: Inhibitory activity on detrusor overactivity: cystometry in rats with partial urethral obstruction
Assay type: in vivo, SD rats
Conditions: p.o., Compound (Ia) 0.01 mg/kg, tamsulosin 0.03 mg/kg; for amplitude of premicturition contractions (relative value, before administration = 100) / frequency of premicturition contractions (relative value, before administration = 100) / amplitude of micturition contractions (relative value, before administration = 100): average ± standard error; for amplitude of premicturition contractions (relative value, before administration = 100) / frequency of premicturition contractions (relative value, before administration = 100): n = 9-10; for amplitude of micturition contractions (relative value, before administration = 100): index of voiding function; for effect on micturition contractions (voiding function), in words / effect on premicturition contractions (amplitude and frequency), in words: summary of Test Example
Procedure: The experiment was carried out according to the method by Malmgren, et al. [J. Urol., Vol. 142, pp. 1134-1138 (1989)]. Female SD rats of 8 to 9 weeks of age (supplied by Charles River Japan) were used in the test. Five to seven animals of these rats were housed in metal cages and given commercially available chow and water ad libtum, in an animal room maintained at room temperature from 19° C. to 25° C. and humidity from 30% to 70% under illumination for 12 hours (7:00 a.m.-7:00 p.m.) per day. The rats were subjected to operation of partial urethral obstruction. Each animal was anesthetized by intraperitoneal administration of 50 mg/kg pentobarbital sodium (Tokyo Kasei), and the midline incision of the skin and muscle was made in the lower abdomen. A polyethylene tube (PE-20, Becton Dickinson) was inserted into urethra from the urethral orifice to the bladder neck. After the proximal urethra was separated from connective tissues and ligated using double suture, the polyethylene tube was removed to induce partial urethral obstruction. The incised part was sutured with a surgical silk thread. An antibiotic ampicillin (Sigma) was intramusclarly injected (150 mg/kg, once a day, for 3 days). Six weeks after the operation of the partial urethral obstruction, the rats with bladder hypertrophy were subjected to intravesical implantation of catheter. Under anesthesia with pentobarbital sodium, the bladder was exposed by an abdominal midline incision. A polyethylene tube (PE-50, Becton Dickinson), one end of which was blunted not to damage the bladder tissue, was filled with a physiological saline (Otsuka Pharmaceutical Factory) and inserted into the bladder via the bladder apex. The intravesical catheter was fixed with a surgical silk suture. The other end of the catheter was tunneled subcutaneously, drawn out from the dorsal neck, plugged and then fixed to the skin with a suture. Four to seven days after the surgery for implantation of intravesical catheter, a cystometry test was performed. The rats were housed in a Bollman cage (Natsume Seisakusho) and a three-way stopcock was connected to the intravesical catheter, one end of the stopcock was connected to a pressure transducer (Nihon Kohden) and the other end was connected to a 50-mL syringe (Terumo) set in an infusion pump (KD Scientific) for physiological saline infusion. The intravesical pressure was measured with a polygraph system (RMP-6008, Nihon Kohden) via a pressure transducer and a strain pressure amplifier (AP-621G, Nihon Kohden), and recorded on a thermal array recorder (RTA-1200, Nihon Kohden). Sixty to 90 minutes after the completion of the preparation for the measurement, a room temperature physiological saline was continuously infused into the urinary bladder for 30 minutes at a flow rate of 10 mL/h to confirm the occurrence of micturition contractions and premicturition contractions (detrusor overactivity). Thirty minutes after the cessation of the first saline infusion, the saline was again infused intravesically for 30 minutes, and this period is for determination of the data before drug administration. Compound (Ia) was suspended in a 0.5 w/v (weight/volume) % methyl cellulose solution at a concentration of 1 mg/ml. The suspension was further diluted with a 0.5 w/v % methyl cellulose solution to prepare solution for administration [solution for Compound (Ia) administration] at a concentration of 0.01 mg/ml. The solution was orally administered to the rats at a volume of 1 ml/kg. Tamsulosin hydrochloride was dissolved in a 0.5 w/v % methyl cellulose solution at a concentration of 0.03 mg/ml (solution for tamsulosin administration), and the solution was orally administered to the rats at a volume of 1 ml/kg. For investigating the effect of the combined administration, Compound (Ia) solution and the tamsulosin solution were simultaneously and orally administered to the rats, both at a volume of 1 ml/kg each. […]

| SMILES | amplitude of premicturition contractions (relative value, before administration = 100) (After 1 hour) [%] | frequency of premicturition contractions (relative value, before administration = 100) (After 1 hour) [%] | amplitude of micturition contractions (relative value, before administration = 100) (After 1 hour) [%] | amplitude of premicturition contractions (relative value, before administration = 100) (After 3 hours) [%] | frequency of premicturition contractions (relative value, before administration = 100) (After 3 hours) [%] | amplitude of micturition contractions (relative value, before administration = 100) (After 3 hours) [%] | amplitude of premicturition contractions (relative value, before administration = 100) (After 5 hours) [%] | frequency of premicturition contractions (relative value, before administration = 100) (After 5 hours) [%] | amplitude of micturition contractions (relative value, before administration = 100) (After 5 hours) [%] | effect on micturition contractions (voiding function), in words | effect on premicturition contractions (amplitude and frequency), in words |
| --- | --- | --- | --- | --- | --- | --- | --- | --- | --- | --- | --- |
| C[C@](O)(C(=O)Nc1cccc2c1C(=O)c1sccc1CS2(=O)=O)C(F)(F)F [Compound (Ia), (S)-(+)-3,3,3-trifluoro-2-hydroxy-2-methyl-N-(5,5,10-trioxo-4,10-dihydrothieno[3,2-c][1]benzothiepin-9-yl)propanamide] | 62.3 ± 7.7 | 52.3 ± 7.3 | 109.5 ± 2.2 | 62.8 ± 7.6 | 46.2 ± 8.1 | 105.5 ± 3.8 | 65.6 ± 7.5 | 42.4 ± 6.0 | 96.7 ± 2.4 | did not affect micturition contractions | inhibited premicturition contractions |
| CCOc1ccccc1OCCN[C@H](C)Cc1ccc(OC)c(S(N)(=O)=O)c1 [Tamsulosin, Tamsulosin hydrochloride] | 62.0 ± 5.2 | 57.8 ± 7.5 | 108.5 ± 6.4 | 75.2 ± 5.5 | 73.2 ± 5.3 | 108.1 ± 6.0 | 88.3 ± 7.2 | 78.4 ± 7.0 | 104.7 ± 6.4 | did not affect micturition contractions | inhibited premicturition contractions |
